From patent publication US20240295545A1, “GLIOMA THERAPY” (Imperial College Innovations Limited, priority 2021, published 2024)
Entries after “also recorded” stand apart in the source; their conditions may differ.

Experiments:
[1] = target: T1, mitochondrial F1Fo ATP Synthase c-subunit leak channel (Sus scrofa, UniProt A1XQS5); assay: ACMA assay (H+ leak in submitochondrial vesicles); format: biochemical, pig; details: negative control; swine brain SMVs
T1 construct: isolated swine brain submitochondrial vesicles (SMVs), which are enriched for the F1Fo ATP synthase; from tissue; host or cells: pig (swine) brain, submitochondrial vesicles
Description: ACMA assay buffer (concentrations used throughout the assay):
ACMA solution: • Stock solution of 1 mg/ml (3.87 mM) ACMA in 100% ethanol • Diluted to working solution (3 μM) in assay buffer • Aliquots of 10 μL to be added to wells
• 1. Sub-mitochondrial vesicles (SMVs) isolated from pig brains were thawed and prepared to 0.17 μg/μL in ACMA assay buffer. • 2. Drug solutions were added to 386-well plates at a final concentration of 10 μM. • 3. Sub-mitochondrial vesicles (SMVs), isolated from pig brains, were thawed and prepared to 0.17 μg/μL in ACMA assay buffer. 30 μL of this solution (containing 5 μg of polypeptide, as measured via the QuickStart Bradford Protein Assay (Bio-Rad, UK)) was added to each well. • 4. Stock solution of 1 mg/ml (3.87 mM) ACMA (9-amino-6-chloro-2-methoxyacridine) were diluted to working solution 3 μM in assay buffer. Aliquots of 10 μL were added to each well (final concentration of 0.75 μM). • 5. The samples were mixed and incubated at room temperature for 20 mins. • 6. The ACMA fluorescence was measured at 1 min intervals using a Tecan Infinite M200 plate reader—excitation 412 nm, emission 480 nm. • 7. […] Fluorescence was measured quickly after addition of ATP for another 7 mins (1 min intervals). […]

GBM1 cells = assay: Glioma suppression assay (SRB proliferation); format: cell-based, human; details: in vitro; FIG. 4D
Description: • 1. Without removing the cell culture medium, gently add 50% cold TCA to each well (the final concentration of TCA should be 10%), and incubate the plates at 4° C. for 1 h. For 150 μL medium volume in each well, add 30 μL of 50% TCA. • 2. Wash the plates 4 times with slow-running tap water. Then allow the plates to air-dry at RT. After fixing and drying, the plates can be stored indefinitely at RT. • 3. Add 0.4% SRB solution to each well (e.g. 80 μL/well). Leave at room temperature for 1 h (no shaking) and then quickly rinse the plates 4 times with 1% acetic acid to remove unbound dye. Then allow the plates to dry at RT. Stained and dried plates can be stored indefinitely at RT. • 4. Add 10 mM Tris base solution to each well (e.g. 80 μL/well) and shake the plate for 5 min to solubilize the protein-bound dye. Alternatively, if a shaker is not available, SRB can be solubilized after 30 min in 10 mM Tris base solution. • 5. Measure the OD at […] in a microplate reader. The suboptimal wavelengths should be 490-530 nm.
1000 Grade IV cells (cell line 1 in FIG. 2) were plated in cell culture medium (10% FBS in DMEM) per each well in 96-well plates. On day 1, the cells were treated with 10 μM of the indicated drugs and incubated at 37° C. for 5 days. SRB assay was performed prior to addition of the drugs and after 5 days. The values were normalized against those of the control (untreated cultures). […]

Grade IV (GBM) cells = assay: Proliferation of primary tumour cells incubated with mitochondrial toxins, GBM; format: cell-based, human; details: rotenone 100 nM, oligomycin 50 nM, UK5099 10 μM; hypoxia and normoxia; FIG. 1B
Excerpt: (§1) The cell lines employed were low-passage lines, derived from tumour tissue. The cells were obtained from tumour tissue of a highly proliferative glioma (which was a grade IV/glioblastoma multiforme glioma). For comparison, cells were also obtained from a tumour tissue of a comparatively slow-growing glioma (which was a grade III glioma).
(§2) The inventors compared the metabolic and mitochondrial energetic profile of slow-growing glioma/astrocytoma cells (chosen in particular due to their relatively slow growth rate) to that in cells of a highly proliferative glioma primary tumour cells by performing ‘hypoxia’ experiments with primary tumour cells, in which primary tumour cells were deprived of adequate oxygen supply and compared with control cells not so deprived (‘normoxia’). […] The slow growing cells were selected from a grade III glioma, and the highly proliferative cells were chosen from a grade IV glioma i.e. glioblastoma multiforme cells.
(§3) To further investigate this, primary tumour cells were incubated (both under hypoxia and normoxia) with the toxins rotenone (100 nM), oligomycin (50 nM), a combination of rotenone and oligomycin (100 nM and 50 nM, respectively) or UK5099 (10 μM).

[2] = test system: grade III astrocytoma cells; assay: Proliferation of primary tumour cells incubated with mitochondrial toxins, grade III; format: cell-based, human; details: rotenone 100 nM, oligomycin 50 nM, UK5099 10 μM; hypoxia and normoxia; FIG. 1B
Excerpt: as §1, §2, §3

T1 sequence (A1XQS5 62-136): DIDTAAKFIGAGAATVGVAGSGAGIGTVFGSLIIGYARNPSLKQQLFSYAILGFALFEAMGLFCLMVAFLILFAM

Row | SMILES | ATP response in ACMA assay [1] | effect on proliferation of GBM1 cell line (highest rate of proliferation) (GBM1 cells) | effect on proliferation of GBM cells (Grade IV (GBM) cells) | effect on proliferation of grade III astrocytoma cells [2]
1 | N#CC(C#N)=NNc1ccc(OC(F)(F)F)cc1 [FCCP, carbonylcyanide p-trifluoromethoxyphenylhydrazone] | attenuated |  |  | 
2 | Cn1nnc2c(C(N)=O)ncn2c1=O [TMZ, temozolomide] |  | no effect |  | 
3 | N#C/C(=C\c1cn(-c2ccccc2)c2ccccc12)C(=O)O [UK5099] |  |  | decreases the proliferation; also recorded: impeded the proliferation | without a significant effect
4 | CC[C@H]1/C=C/C=C/C[C@@H](C)[C@H](O)[C@@](C)(O)C(=O)[C@@H](C)[C@H](O)[C@@H](C)C(=O)[C@@H](C)[C@H](O)[C@@H](C)/C=C/C(=O)O[C@@H]2[C@H](C)[C@H](CC1)O[C@]1(CC[C@H](C)[C@H](C[C@@H](C)O)O1)[C@H]2C [oligomycin] | attenuated |  | decreases the proliferation; also recorded: impeded the proliferation | without a significant effect
5 | C=C(C)[C@H]1Cc2c(ccc3c2O[C@@H]2COc4cc(OC)c(OC)cc4[C@@H]2C3=O)O1 [rotenone] |  |  | decreases the proliferation; also recorded: impeded the proliferation | without a significant effect
